For 55 compounds, IC50 results are on record in patent US20140349970A1 (ABBVIE INC., priority 2009, published 2014).

Structures are written as SMILES.

The target of one test is T1, Syk catalytic domain (aa 356-635 with a C-terminal His-tag) (Homo sapiens, UniProt P43405).
T1 construct: His-tag (C); made in house
Nature of the test: In vitro Syk kinase activity measured by trFRET, Syk catalytic domain.
Conditions: not given
The test is classed as biochemical. An outline of the steps:
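Kinase reaction: 0.14 nM His-tagged catalytic domain, 0.2 μM biotin-TYR1 peptide, 0.001 mM ATP in 50 mM MOPSO pH 6.5 with MgCl2, MnCl2, DTT, BSA, vanadate, ~60 min at rt, then EDTA quench. Phosphoproduct detected by trFRET (Eu anti-pTyr antibody/streptavidin-APC, 665 nm emission); IC50 from signal in linear range.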
For the compound `c1cnc(-c2nc(C3CCCCC3)n3c2cnc2[nH]ccc23)cn1` [AC.3.16], the IC50 lay in the range of 1000 to 10000 nM.
On the same count and under the same terms, as for `CS(=O)(=O)c1ccc(-c2nc(COCCN)n3c2cnc2[nH]ccc23)cc1` [T.4.1.1], the figure is 100 to 1000 nM.
`COc1ccc(-c2nc(C)n3c2cnc2[nH]ccc23)s1` [AC.1.31] came in with an IC50 of less than 100 nM.
As for `Cc1nc(-c2ccc(C(C)(C)CO)cc2)c2cnc3[nH]ccc3n12` [AC.1.7], the IC50 is less than 100 nM.
In turn, `Cc1nc(-c2ccc(C3(CO)CC3)cc2)c2cnc3[nH]ccc3n12` [AC.1.36] registered an IC50 of 100 to 1000 nM.
In turn, `COc1cc2c(-c3cc4c(ncc5cnn(C)c54)[nH]3)cn(C)c2cn1` [AC.2.1] gave an IC50 of less than 100 nM.
In the case of `COCCOc1ccc(-c2nc(C)n3c2cnc2[nH]ccc23)cc1` [AC.1.15], the half-inhibitory concentration (IC50) is 100 to 1000 nM.
With `CCc1c(-c2ccc(C(C)(C)O)cc2)[nH]c2ncc3cncn3c12` [S.1.1], the IC50 was less than 100 nM.
`COc1ccc(-c2nc(C)n3c2cnc2[nH]ccc23)c(CO)c1` [AC.1.2] came in with a half-inhibitory concentration (IC50) of 1000 to 10000 nM.
Regarding `CNS(=O)(=O)c1ccc(-c2nc(C)n3c2cnc2[nH]ccc23)cc1` [AC.1.9], the IC50 is less than 100 nM.
Same read-out and setting: as for `CCc1c(-c2ccc(C(C)(C)O)cc2)[nH]c2nc(C)c3cncn3c12` [S.1.7], the figure is 100 to 1000 nM; as for `O=C(c1ccc(-c2nc(C3CCCCC3)n3c2cnc2[nH]ccc23)cc1)N1CCOCC1` [AC.3.28], 100 to 1000 nM.
As for `CC(=O)Nc1ccc(-c2nc(C3CCCCC3)n3c2cnc2[nH]ccc23)cc1` [AC.3.7], the IC50 lay in the range of 100 to 1000 nM.
Take `COc1ccc(-c2nc(C)n3c2cnc2[nH]ccc23)cc1Cl` [AC.1.42]: the IC50 was in the range of 100 to 1000 nM.
Regarding `COc1ccc(-c2nc(C)n3c2cnc2[nH]ccc23)cn1` [AC.1.21], the IC50 fell in the range of 100 to 1000 nM.
For `C1=C(c2ncn3c2cnc2[nH]ccc23)CCNC1` [P.3.1.4, 3-(1,2,3,6-Tetrahydropyridin-4-yl)-6H-imidazo[1,5-a]pyrrolo[2,3-e]pyrazine], the half-maximal inhibitory concentration (IC50) is more than 10000 nM.
`Cc1nc(C2=CCN(C(=O)OC(C)(C)C)CC2)c2cnc3[nH]ccc3n12` [AC.1.13]: the IC50 was 1000 to 10000 nM.
For the compound `Cc1nc(-c2cnn(CC(C)(C)O)c2)c2cnc3[nH]ccc3n12` [AC.1.28], the concentration for half-maximal inhibition (IC50) lay in the range of 100 to 1000 nM.
`CN(C)S(=O)(=O)c1ccc(-c2nc(C3CCCCC3)n3c2cnc2[nH]ccc23)cc1` [AC.3.29] had an IC50 of 100 to 1000 nM.

Still in this test, the particulars now being: Syk catalytic domain (aa 356-635), trFRET, 0.001 mM ATP.
Consider `COc1ccc2c(c1)c(-c1cc3c(ncc4cnn(C)c43)[nH]1)cn2CC(=O)N1CCN(C)CC1` [N.2.14], for which the IC50 was less than 100 nM.
Same read-out and setting: the figure for `COc1ccc2c(c1)c(-c1cc3c(ncc4cnn(C)c43)[nH]1)cn2CC(O)CN(C)C` (stereo not shown) [N.1.29] is less than 100 nM; for `Cn1ncc2cnc3[nH]c(-c4ccc5nccnc5c4)cc3c21` [N.2.8] it is 100 to 1000 nM.
Turning to `COc1ccc2c(c1)c(-c1cc3c(ncc4cnc([C@@H]5CCN(C(C)=O)C5)n43)[nH]1)cn2C` [J.2.1.1], the IC50 lay in the range of 100 to 1000 nM.
`CN1CCc2cnc3[nH]c(-c4ccc(C(C)(C)O)cc4)cc3c21` [N.1.23] displayed a 50% inhibitory concentration (IC50) of 1000 to 10000 nM.
`Cn1cc(-c2cc3c(ncc4cnn(C)c43)[nH]2)c2cc(C(=O)NC(C)(C)CO)ccc21` [J.2.2.1]: the 50% inhibitory concentration (IC50) is less than 100 nM.
`COc1ccc(-c2ncn3c2cnc2[nH]ccc23)cc1` [N.1.98] came in with an IC50 of less than 100 nM.
`COc1ccc2c(c1)c(-c1cc3c(ncc4cnc([C@@H]5CC[C@H](N)C5)n43)[nH]1)cn2C` (relative stereo) [T.1.1, cis-3-(7-(5-Methoxy-1-methyl-1H-indol-3-yl)-6H-imidazo[1,5-a]pyrrolo[2,3-e]pyrazin-1-yl)cyclopentanamine diacetate] displayed an IC50 of less than 100 nM.
`CCc1c(-c2cccc(S(C)(=O)=O)c2)[nH]c2ncc3cnn(C)c3c12` [N.1.21] gave an IC50 of 100 to 1000 nM.
In turn, `Cc1nc(-c2ccc(C(C)(C)O)cc2)c2cnc3[nH]c(Br)cc3n12` [Example 11, 2-(4-(7-Bromo-1-methyl-6H-imidazo[1,5-a]pyrrolo[2,3-e]pyrazin-3-yl)phenyl)propan-2-ol] yielded an IC50 of 100 to 1000 nM.
Same read-out and setting: the figure for `COc1ccc(-c2cc3c(ncc4c(C)nc(C)n43)[nH]2)cc1` [M.1.22] is 100 to 1000 nM; for `Cc1ccc2c(c1)c(-c1cc3c(ncc4cnn(C)c43)[nH]1)cn2C` [N.1.111] it is less than 100 nM.
`CCc1c(-c2ccc(OCCN(C)C)cc2)[nH]c2ncc3cnn(C)c3c12` [N.1.80] had an IC50 of 1000 to 10000 nM.
Same read-out and setting: as for `COc1ccc2c(c1)c(-c1cc3c(ncc4cnc(CCC#N)n43)[nH]1)cn2C` [M.1.13], the figure is less than 100 nM; as for `CCCNC(=O)c1ccc(-c2nc(C)n3c2cnc2[nH]ccc23)cc1Cl` [J.1.6.1], 100 to 1000 nM.
The same measure, in the same setting: the figure for `Cn1ncc2cnc3[nH]c(-c4cccc(S(=O)(=O)NCCO)c4)cc3c21` [N.1.34] is less than 100 nM.
In turn, `Cc1nc(-c2ccc(C(C)(C)O)cc2)c2cnc3[nH]ccc3n12` [N.1.50, 2-(4-(1-methyl-6H-imidazo[1,5-a]pyrrolo[2,3-e]pyrazin-3-yl)phenyl)propan-2-ol] yielded a half-inhibitory concentration (IC50) of less than 100 nM.
`COc1ccc2c(c1)c(-c1nc(C)n3c1cnc1[nH]ccc13)cn2C` [N.1.55] showed an IC50 of 100 to 1000 nM.
`CC(C)(O)c1ccc(-c2nc(C3CCOCC3)n3c2cnc2[nH]ccc23)cc1` [N.1.84]: the IC50 fell in the range of 100 to 1000 nM.
The same measure, in the same setting: the figure for `CCc1c(-c2ccc(C(C)(C)O)cc2)[nH]c2ncc3cnn(C)c3c12` [N.1.20] is less than 100 nM; for `CCOCCCNC(=O)Cn1cccc1-c1cc2c(ncc3cnn(C)c32)[nH]1` [J.2.3.1] it is 1000 to 10000 nM.
As to `COCCNS(=O)(=O)c1cccc(-c2cc3c(ncc4cnn(C)c43)[nH]2)c1` [N.1.42], the IC50 was in the range of 100 to 1000 nM.
In turn, `Cc1ncc2cnc3[nH]c(-c4cccc(C(=O)NCCN5CCOCC5)c4)cc3n12` [M.1.11] showed an IC50 of 100 to 1000 nM.
On to `COc1ccc2c(c1)c(-c1cc3c(ncc4cnc(CCN)n43)[nH]1)cn2C` [T.1.1.4], for which the IC50 was less than 100 nM.
In the case of `CCc1c(-c2ccc(OCCOC)cc2)[nH]c2ncc3cnn(C)c3c12` [N.1.79], the IC50 lay in the range of 100 to 1000 nM.
`Cc1ccc(-c2nc(C)n3c2cnc2[nH]ccc23)c2cc[nH]c12` [N.1.57] yielded an IC50 of 1000 to 10000 nM.
Still for that read-out and setting: as for `COc1ccc(-c2nc(N3CCN(C)CC3)n3c2cnc2[nH]ccc23)cc1` [N.1.85], the figure is 1000 to 10000 nM.
With `Cn1cc(-c2cc3c(ncc4cnn(C)c43)[nH]2)c2ccccc21` [N.1.24], the IC50 was less than 100 nM.
On the same count and under the same terms, as for `CS(=O)(=O)c1ccc(-c2nc([C@H]3CCCNC3)n3c2cnc2[nH]ccc23)cc1` [N.1.61], the figure is 100 to 1000 nM.
The same measure, in the same setting: the figure for `COc1ccc2c(c1)c(-c1cc3c(ncc4cnn(C)c43)[nH]1)cn2CCN1CCOCC1` [N.2.11] is less than 100 nM.
As to `CCc1c(-c2cccc3c2ccn3C)[nH]c2ncc3cnn(C)c3c12` [N.1.16], the IC50 is more than 10000 nM.
With `CC(=O)NCCCc1ncc2cnc3[nH]c(-c4cnn(C)c4)cc3n12` [J.2.1.3], the IC50 is 100 to 1000 nM.
Regarding `COc1ccc2c(c1)c(-c1cc3c(ncc4cnc(CC(F)(F)F)n43)[nH]1)cn2C` [M.1.1], the IC50 was less than 100 nM.
The same measure, in the same setting: as for `CCCNC(=O)c1cccc(-c2[nH]c3ncc4cnn(C)c4c3c2CC)c1` [N.1.39], the figure is 1000 to 10000 nM; as for `Cn1ccc2cc(-c3cc4c(ncc5cnn(C)c54)[nH]3)ccc21` [N.1.46], 100 to 1000 nM.
In the case of `CCc1c(-c2ccc(OC)cc2)[nH]c2ncc3cnn(C)c3c12` [N.1.43], the IC50 lay within 100 to 1000 nM.

In general, IC50 refers to the concentration that gives 50% inhibition.
